Entries after “also recorded” stand apart in the source; their conditions may differ.
Tests used:
holo-CRBP1 = target: T1, holo-CRBP1 (Homo sapiens, UniProt P09455); test: High-throughput screening for CRBP1 ligands; format: binding; conditions: 986 compounds at 5 μM, 1 μM holo-CRBP1
T1 construct: made in house
T1 sequence (P09455 1-135): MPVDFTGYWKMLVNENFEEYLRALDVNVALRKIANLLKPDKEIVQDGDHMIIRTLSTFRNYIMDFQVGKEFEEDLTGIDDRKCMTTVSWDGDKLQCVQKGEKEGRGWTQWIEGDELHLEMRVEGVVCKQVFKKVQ
Method: The principle of the fluorescence binding assays described above was adapted for the HTS in a 96-well plate format. Each well contained 0.2 mL of 20 mM Tris/HCl, pH 7.4 and 1 μM of holo-CRBP1. Tested compounds from two independent libraries (Bioactive Lipid I Screening Library form Cayman Chemicals and Screen-Well Bioactive Lipid Library from Enzo Life Science, total of 986 chemicals) were delivered in dimethyl sulfoxide (DMSO) to the final concentration of 5 μM. After 15 min of incubation at room temperature (RT), the samples were excited at 285 nm, and the fluorescence signals from CRBP1 (at 350 nm) and atROL (at 480 nm) were recorded in a Flexstation3 microplate reader (Molecular Devices). Changes in the fluorescence emissions were evaluated by calculating ratio between signals at 480 and 350 nm. To eliminate false positives, only those wells in which the increase in protein fluorescence was accompanied by proportional decline in the fluorescence of atROL were considered as potential hits.
To search for compounds interacting with CRBP1, we developed an HTS strategy that minimalized experimental bias associated with investigating the binding of hydrophobic ligands to a protein specialized for interaction with small lipophilic molecules. It is based on the fluorescence properties of CRBP1 in complex with its natural ligand, atROL. […]

Balb/cJ mice [1] = test: Electroretinography (ERG) after photobleach; format: in vivo; conditions: 30 mg kg^−1; scotopic ERG 4 h after flash of light
Method: Before the ERG recording, dark-adapted Balb/cJ mice were anesthetized with 20 mg mL^−1 ketamine and 1.75 mg mL^−1 xylazine in PBS at a dose of 0.1-0.13 mL per 25 g of body weight, and pupils were dilated with 1% tropicamide. Contact lens electrodes were placed on the eyes, and a reference electrode was positioned between two ears, while ground electrode was placed on the tail. Scotopic ERGs were recorded for both eyes of each mouse using a UTAS E-3000 universal testing and ERG system (LKC Technologies).
To quantify the effect of the CRBP1 inhibitor on the recovery of visual sensitivity after a light stimulus, we measured full-field electroretinography (ERG) responses in mice. Prior to the illumination, the animals were either treated with DMSO (vehicle) or abn-CBD. Both drugs were administrated in a dose of 30 mg kg^−1. Scotopic ERG responses at varying light intensities were recorded 4 h after the exposure to a flash of light that photobleached ˜50% of the visual pigment. […] However, even in a relatively high dose used in this experiment, the inhibitor of CRBP1 had much smaller impact on the visual cycle without causing its blockage, as it was reported for retinylamine and emixustat.

Balb/cJ mice [2] = test: Light-induced retinal degeneration (OCT, H&E histology); format: in vivo
Method: Retinal degeneration was induced by exposing dark-adapted Balb/cJ mice to white light with an intensity of ˜50 000 l×, delivered from a 100 W AC90-145 V lightemitting diode (LED) lamp (Home Depot) for 1 h. Abn-CBD in doses of 30, 15, or 7.5 mg kg^−1 was administered by i.p. injection in sterilized 80% DMSO/water (v/v) 1 h before exposure to bright light. […] Retinal morphology was analyzed in vivo by OCT 7 d after the light exposure. Then the mice were euthanized, and their eyes were subjected to staining with H&E staining and imaging.
To assess the effect of abn-CBD on light-induced retinal degeneration in Balb/cJ mice, the retinas were examined by ultrahigh resolution OCT (Bioptigen). Pupils of mice were first dilated with 1% tropicamide, and the animals were anesthetized with ketamine/xylazine cocktail. Twenty-five frames of OCT images scanned at 0° and 90° were acquired in the B-scan and averaged.
The structural morphology of mouse retinas challenged with bright light were assessed using H&E staining of paraffin sections. Mouse eyes were fixed in 4% paraformaldehyde and 1% glutaraldehyde followed by paraffin sectioning. Paraffin sections (5 μm thick) were stained with H&E and imaged by light microscopy (Leica).

cannabinoid receptor 1 = cannabinoid receptor 1 (Homo sapiens, UniProt P21554); conditions: cited from earlier work
Chain of cannabinoid receptor 1 (P21554 whole entry, species assumed): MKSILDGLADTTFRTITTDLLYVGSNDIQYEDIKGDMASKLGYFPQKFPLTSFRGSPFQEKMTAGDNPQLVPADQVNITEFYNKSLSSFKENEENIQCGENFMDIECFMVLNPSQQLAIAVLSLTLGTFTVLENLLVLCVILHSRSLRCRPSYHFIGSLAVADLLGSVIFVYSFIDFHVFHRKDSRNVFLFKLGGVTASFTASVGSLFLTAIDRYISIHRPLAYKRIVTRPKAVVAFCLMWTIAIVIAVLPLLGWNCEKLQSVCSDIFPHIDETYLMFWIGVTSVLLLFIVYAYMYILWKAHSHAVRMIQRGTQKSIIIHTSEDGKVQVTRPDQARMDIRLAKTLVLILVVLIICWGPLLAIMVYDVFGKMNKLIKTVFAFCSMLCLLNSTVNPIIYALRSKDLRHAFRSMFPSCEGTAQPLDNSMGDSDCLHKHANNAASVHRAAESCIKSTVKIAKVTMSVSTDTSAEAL

C=C(C)[C@@H]1CCC(C)=C[C@H]1c1c(O)cc(O)cc1CCCCC [abn-CBD, 4-[(1R,6R)-3-Methyl-6-prop-1-en-2-ylcyclohex-2-en-1-yl]-5-pentylbenzene-1,3-diol]
HTS result (holo-CRBP1): unique hit; also recorded: single hit
recovery of a-wave and b-wave amplitudes (dark adaptation) (Balb/cJ mice [1]): slower; also recorded: slight delay in the dark adaptation
retinal histology (H&E) after light exposure (Balb/cJ mice [2]; 7 d post illumination): protective effect; also recorded: partial preservation of the photoreceptor cells
dose causing 50% of maximum effect (ED50), protection against light-induced retinal damage (Balb/cJ mice [2]; i.p. before bright light, OCT (ONL thickness) 7 d later, estimated): ~15 mg/kg
protection against light-induced retinal damage (OCT retinal morphology) (Balb/cJ mice [2]; i.p. before bright light, OCT a week later): largely protected; also recorded: protective effect
interaction with cannabinoid receptor 1 (cannabinoid receptor 1): does not interact

— patent US20210228500A1, “CELLULAR RETINOID BINDING PROTEIN ANTAGONISTS AND USES THEREOF” (CASE WESTERN RESRVE UNIVERSITY, priority 2018, published 2021)
